From patent publication US11208400B2, “Substituted 6-(1H-pyrazol-1-yl)pyrimidin-4-amine derivatives and uses thereof” (Bayer Aktiengesellschaft, priority 2016, dated 2021) come the findings set out here.

The structures appear in SMILES notation.

The experiment addresses T1, human Npt2a (Homo sapiens, UniProt Q06495).
T1 construct: expressed in transfected cells
T1 sequence (Q06495 1-639): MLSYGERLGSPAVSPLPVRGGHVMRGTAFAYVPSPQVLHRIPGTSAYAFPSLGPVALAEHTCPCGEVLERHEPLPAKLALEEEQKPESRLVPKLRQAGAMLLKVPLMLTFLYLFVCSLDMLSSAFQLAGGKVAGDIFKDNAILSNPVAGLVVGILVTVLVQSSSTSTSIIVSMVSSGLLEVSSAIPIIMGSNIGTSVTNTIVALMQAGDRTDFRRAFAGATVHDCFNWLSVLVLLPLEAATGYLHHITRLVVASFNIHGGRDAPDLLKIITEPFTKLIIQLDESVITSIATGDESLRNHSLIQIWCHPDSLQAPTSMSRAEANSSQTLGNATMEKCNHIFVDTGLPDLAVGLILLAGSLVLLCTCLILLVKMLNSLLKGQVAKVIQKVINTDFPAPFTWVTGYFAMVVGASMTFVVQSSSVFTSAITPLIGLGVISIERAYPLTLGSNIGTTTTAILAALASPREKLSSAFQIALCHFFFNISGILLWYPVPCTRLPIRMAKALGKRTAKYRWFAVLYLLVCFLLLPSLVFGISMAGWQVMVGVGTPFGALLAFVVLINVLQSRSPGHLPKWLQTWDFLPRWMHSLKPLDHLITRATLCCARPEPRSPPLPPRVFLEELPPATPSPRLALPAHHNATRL
Nature of the experiment: Npt2a activity cell based assay, membrane potential dye, CHO T-REx hNpt2a cells. Particulars: doxycycline-induced, depolarization by sodium phosphate influx, average or median values if tested more than once. The essentials: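 Doxycycline-induced (0.5 μg/mL, 24 h) CHO T-REx cells were loaded with membrane potential dye in sodium-free NHE buffer (pH 7.4) and exposed to compound (50 μM–1 nM, 5 min, room temperature).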
The IC50 is the concentration needed to halve the response being measured. In turn, `Cc1cc(C(C)(C)O)n(-c2cc(Nc3c(C)c(-c4ccc(OC(F)(F)F)cc4)nn3CC3CC3)ncn2)n1` [Example 291, 2-{1-[6-({1-(cyclopropylmethyl)-4-methyl-3-[4-(trifluoromethoxy)phenyl]-1H-pyrazol-5-yl}amino)pyrimidin-4-yl]-3-methyl-1H-pyrazol-5-yl}propan-2-ol] gave an IC50 of 110 nM.
With `Cc1nn(-c2cc(Nc3c(C)c(-c4ccc(C(F)(F)F)cc4)nn3CC3CC3)ncn2)c(C)c1C(C)(C)O` [Example 292, 2-{1-[6-({1-(cyclopropylmethyl)-4-methyl-3-[4-(trifluoromethyl)phenyl]-1H-pyrazol-5-yl}amino)pyrimidin-4-yl]-3,5-dimethyl-1H-pyrazol-4-yl}propan-2-ol], the half-inhibitory concentration (IC50) is 240 nM.
For `Cc1cc(C(C)(C)O)n(-c2cc(Nc3c(C)c(-c4ccc(C(F)(F)F)cc4)nn3CC3CC3)ncn2)n1` [Example 293, 2-{1-[6-({1-(cyclopropylmethyl)-4-methyl-3-[4-(trifluoromethyl)phenyl]-1H-pyrazol-5-yl}amino)pyrimidin-4-yl]-3-methyl-1H-pyrazol-5-yl}propan-2-ol] the value was 570 nM; for `Cc1nn(-c2cc(Nc3c(C)c(-c4ccc(C(F)(F)F)cc4)nn3CC3CC3)ncn2)c(C(C)(C)O)c1Cl` [Example 294, 2-{4-chloro-1-[6-({1-(cyclopropylmethyl)-4-methyl-3-[4-(trifluoromethyl)phenyl]-1H-pyrazol-5-yl}amino)pyrimidin-4-yl]-3-methyl-1H-pyrazol-5-yl}propan-2-ol], 1400 nM; for `Cc1nn(-c2cc(Nc3c(C)c(-c4ccc(F)cc4)nn3CC3CC3)ncn2)c(C)c1C(O)(C(F)(F)F)C(F)(F)F` [Example 295, 2-[1-(6-{[1-(cyclopropylmethyl)-3-(4-fluorophenyl)-4-methyl-1H-pyrazol-5-yl]amino}pyrimidin-4-yl)-3,5-dimethyl-1H-pyrazol-4-yl]-1,1,1,3,3,3-hexafluoropropan-2-ol], 13 nM.
For `CCc1c(Nc2cc(-n3nc(C)c(CN4CC(F)C4)c3C)ncn2)nn(C)c1-c1ccc(F)cc1` [Example 296, N-[4-ethyl-5-(4-fluorophenyl)-1-methyl-1H-pyrazol-3-yl]-6-{4-[(3-fluoroazetidin-1-yl)methyl]-3,5-dimethyl-1H-pyrazol-1-yl}pyrimidin-4-amine], inhibition was half-maximal at 117 nM (IC50).
`CCc1c(Nc2cc(-n3nc(C)c(CN4CCN(C)CC4)c3C)ncn2)nn(C)c1-c1ccc(F)cc1` [Example 297, 6-{3,5-dimethyl-4-[(4-methylpiperazin-1-yl)methyl]-1H-pyrazol-1-yl}-N-[4-ethyl-5-(4-fluorophenyl)-1-methyl-1H-pyrazol-3-yl]pyrimidin-4-amine] yielded an IC50 of 1430 nM.
Consider `Cc1nn(-c2cc(Nc3c(C)c(-c4ccc(C#N)cc4)nn3C)ncn2)c(C)c1C(C)(C)O` [Example 298, 4-[5-({6-[4-(2-hydroxypropan-2-yl)-3,5-dimethyl-1H-pyrazol-1-yl]pyrimidin-4-yl}amino)-1,4-dimethyl-1H-pyrazol-3-yl]benzonitrile], for which the IC50 worked out at 17 nM.
For `CCOC(=O)c1c(C)nn(-c2cc(Nc3nn(C)c(-c4ccc(C#N)cc4)c3C)ncn2)c1C` [Example 299, ethyl 1-(6-{[5-(4-cyanophenyl)-1,4-dimethyl-1H-pyrazol-3-yl]amino}pyrimidin-4-yl)-3,5-dimethyl-1H-pyrazole-4-carboxylate] the value was 5 nM; for `Cc1nn(-c2cc(Nc3nn(C)c(-c4ccc(C#N)cc4)c3C)ncn2)c(C)c1C(C)(C)O` [Example 300, 4-[3-({6-[4-(2-hydroxypropan-2-yl)-3,5-dimethyl-1H-pyrazol-1-yl]pyrimidin-4-yl}amino)-1,4-dimethyl-1H-pyrazol-5-yl]benzonitrile], 88 nM.
As for `Cc1nn(-c2cc(Nc3c(C)nn(-c4ccc(C#N)cc4)c3C)ncn2)c(C)c1CC(C)(C)O` [Example 301, 4-[4-({6-[4-(2-hydroxy-2-methylpropyl)-3,5-dimethyl-1H-pyrazol-1-yl]pyrimidin-4-yl}amino)-3,5-dimethyl-1H-pyrazol-1-yl]benzonitrile], the figure is 92 nM.
For `Cc1nn(-c2cc(Nc3c(C)c(-c4ccc(F)cc4)nn3CC3CC3)ncn2)c(C)c1CC(C)(C)O` [Example 302, 1-[1-(6-{[1-(cyclopropylmethyl)-3-(4-fluorophenyl)-4-methyl-1H-pyrazol-5-yl]amino}pyrimidin-4-yl)-3,5-dimethyl-1H-pyrazol-4-yl]-2-methylpropan-2-ol] the value was 9 nM.
For `CCOC(=O)c1c(Cl)c(C)nn1-c1cc(Nc2nn(C)c(-c3ccc(F)cc3)c2Cl)ncn1` [Example 303, ethyl 4-chloro-1-(6-{[4-chloro-5-(4-fluorophenyl)-1-methyl-1H-pyrazol-3-yl]amino}pyrimidin-4-yl)-3-methyl-1H-pyrazole-5-carboxylate], the half-inhibitory concentration (IC50) came out at 47 nM.
As for `Cc1nn(-c2cc(Nc3nn(C)c(-c4ccc(F)cc4)c3Cl)ncn2)c(C(C)(C)O)c1Cl` [Example 304, 2-[4-chloro-1-(6-{[4-chloro-5-(4-fluorophenyl)-1-methyl-1H-pyrazol-3-yl]amino}pyrimidin-4-yl)-3-methyl-1H-pyrazol-5-yl]propan-2-ol], the midpoint of inhibition, the IC50, lay at 6 nM.
For `Cc1cc(C)n(-c2cc(Nc3c(C)c(-c4ccc(C(F)F)cc4)nn3CC3CC3)ncn2)n1` [Example 305, N-{1-(cyclopropylmethyl)-3-[4-(difluoromethyl)phenyl]-4-methyl-1H-pyrazol-5-yl}-6-(3,5-dimethyl-1H-pyrazol-1-yl)pyrimidin-4-amine], 27 nM corresponded to half-maximal inhibition (IC50).
As for `Cc1cc(C)n(-c2cc(Nc3c(C)c(-c4ccc(C(F)(F)F)cc4)nn3CC3CC3)ncn2)n1` [Example 306, N-{1-(cyclopropylmethyl)-4-methyl-3-[4-(trifluoromethyl)phenyl]-1H-pyrazol-5-yl}-6-(3,5-dimethyl-1H-pyrazol-1-yl)pyrimidin-4-amine], the figure is 60 nM; as for `Cc1cc(C(F)F)n(-c2cc(Nc3c(C)c(-c4ccc(C(F)(F)F)cc4)nn3CC3CC3)ncn2)n1` [Example 307, N-{1-(cyclopropylmethyl)-4-methyl-3-[4-(trifluoromethyl)phenyl]-1H-pyrazol-5-yl}-6-[5-(difluoromethyl)-3-methyl-1H-pyrazol-1-yl]pyrimidin-4-amine], 560 nM.
`Cc1cc(C)n(-c2cc(Nc3c(C)c(-c4ccc(OC(F)(F)F)cc4)nn3CC3CC3)ncn2)n1` [Example 308, N-{1-(cyclopropylmethyl)-4-methyl-3-[4-(trifluoromethoxy)phenyl]-1H-pyrazol-5-yl}-6-(3,5-dimethyl-1H-pyrazol-1-yl)pyrimidin-4-amine]: the 50% inhibitory concentration (IC50) stood at 23 nM.
`Cc1cc(C(F)F)n(-c2cc(Nc3c(C)c(-c4ccc(OC(F)(F)F)cc4)nn3CC3CC3)ncn2)n1` [Example 309, N-{1-(cyclopropylmethyl)-4-methyl-3-[4-(trifluoromethoxy)phenyl]-1H-pyrazol-5-yl}-6-[5-(difluoromethyl)-3-methyl-1H-pyrazol-1-yl]pyrimidin-4-amine] came in with a 50% inhibitory concentration (IC50) of 44 nM.
The compound `Cc1nn(-c2cc(Nc3c(C)c(-c4ccc(OC(F)(F)F)cc4)nn3CC3CC3)ncn2)c(C)c1Cl` [Example 310, 6-(4-chloro-3,5-dimethyl-1H-pyrazol-1-yl)-N-{1-(cyclopropylmethyl)-4-methyl-3-[4-(trifluoromethoxy)phenyl]-1H-pyrazol-5-yl}pyrimidin-4-amine] showed an IC50 of 21 nM.
`Cc1nn(-c2cc(Nc3c(C)c(-c4ccc(C(F)(F)F)cc4)nn3CC3CC3)ncn2)c(C)c1Cl` [Example 311, 6-(4-chloro-3,5-dimethyl-1H-pyrazol-1-yl)-N-{1-(cyclopropylmethyl)-4-methyl-3-[4-(trifluoromethyl)phenyl]-1H-pyrazol-5-yl}pyrimidin-4-amine] registered a half-maximal inhibitory concentration (IC50) of 340 nM.
`Cc1cc(C)n(-c2cc(Nc3c(C)c(-c4ccc(Cl)cc4)nn3CC3CC3)ncn2)n1` [Example 312, N-[3-(4-chlorophenyl)-1-(cyclopropylmethyl)-4-methyl-1H-pyrazol-5-yl]-6-(3,5-dimethyl-1H-pyrazol-1-yl)pyrimidin-4-amine] yielded a concentration for half-maximal inhibition (IC50) of 10 nM.
As for `Cc1cc(C(F)F)n(-c2cc(Nc3c(C)c(-c4ccc(Cl)cc4)nn3CC3CC3)ncn2)n1` [Example 313, N-[3-(4-chlorophenyl)-1-(cyclopropylmethyl)-4-methyl-1H-pyrazol-5-yl]-6-[5-(difluoromethyl)-3-methyl-1H-pyrazol-1-yl]pyrimidin-4-amine], the figure is 36 nM; as for `CCOC(=O)c1c(C)nn(-c2cc(Nc3c(C)c(-c4ccc(Cl)cc4)nn3CC3CC3)ncn2)c1C` [Example 314, ethyl 1-(6-{[3-(4-chlorophenyl)-1-(cyclopropylmethyl)-4-methyl-1H-pyrazol-5-yl]amino}pyrimidin-4-yl)-3,5-dimethyl-1H-pyrazole-4-carboxylate], 9 nM.
As to `COc1c(-c2ccc(F)cc2)nn(CC2CC2)c1Nc1cc(-n2nc(C)cc2C)ncn1` [Example 315, N-[1-(cyclopropylmethyl)-3-(4-fluorophenyl)-4-methoxy-1H-pyrazol-5-yl]-6-(3,5-dimethyl-1H-pyrazol-1-yl)pyrimidin-4-amine], the IC50 is 99 nM.
